In the supplement of paper PMC10307832:

How the values were obtained:
Assay in all cases: relative viability (nuclei count vs DMSO), 5 days (fraction); higher = more cells survive
[1] = compound: O=C(O)c1ccc2c(c1)nc(Nc1cccc(Cl)c1)c1ccncc12 [Silmitasertib] + C[C@]1(O)C[C@@H](c2nc(-c3ccc4ccc(-c5ccccc5)nc4c3)c3c(N)nccn32)C1 [Linsitinib] (partner 1 µM)
In short: (§1)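 Nuclei were stained with Hoechst during a one-step fixation (final 0.05% Triton X-100, 1% formaldehyde, 1 ug/ml Hoechst) carried out 5 days after dosing, then counted on 4× images. The cells, lung cancer lines in 1536-well plates, had been dosed by pin tool the day after seeding with one drug alone or a fixed anchor-drug dose plus five library-drug doses (not always all listed) in √10 steps. Relative viability is the nuclei count in treated wells divided by that in vehicle wells, and each value is the median of duplicate plates.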

[2] = compound: O=C(O)c1ccc2c(c1)nc(Nc1cccc(Cl)c1)c1ccncc12 [Silmitasertib] + Cc1nc(NC(=O)N2CCC[C@H]2C(N)=O)sc1-c1ccnc(C(C)(C)C(F)(F)F)c1 [Alpelisib] (partner 2 µM)
In short: as §1

[3] = compound: O=C(O)c1ccc2c(c1)nc(Nc1cccc(Cl)c1)c1ccncc12 [Silmitasertib] + CS(=O)(=O)N1CCN(Cc2cc3nc(-c4cccc5[nH]ncc45)nc(N4CCOCC4)c3s2)CC1 [Pictilisib] (partner 1 µM)
In short: as §1

[4] = compound: O=C(O)c1ccc2c(c1)nc(Nc1cccc(Cl)c1)c1ccncc12 [Silmitasertib] + CC(C)C[C@H](NC(=O)[C@H](Cc1ccccc1)NC(=O)c1cnccn1)B(O)O [Bortezomib] (partner 0.002 µM)
In short: as §1

[5] = compound: O=C(O)c1ccc2c(c1)nc(Nc1cccc(Cl)c1)c1ccncc12 [Silmitasertib] + C[C@@H](Oc1cc(-c2cnn(C3CCNCC3)c2)cnc1N)c1c(Cl)ccc(F)c1Cl [Crizotinib] (partner 1 µM)
In short: as §1

Row | Cell Line | relative viability ([1]; first compound 0.04 µM) | relative viability ([1]; first compound 1.265 µM) | relative viability ([1]; first compound 4 µM) | relative viability ([2]; first compound 0.04 µM) | relative viability ([2]; first compound 1.265 µM) | relative viability ([2]; first compound 4 µM) | relative viability ([3]; first compound 0.04 µM) | relative viability ([3]; first compound 0.4 µM) | relative viability ([3]; first compound 1.265 µM) | relative viability ([3]; first compound 4 µM) | relative viability ([4]; first compound 0.04 µM) | relative viability ([4]; first compound 1.265 µM) | relative viability ([4]; first compound 4 µM) | relative viability ([5]; first compound 0.04 µM) | relative viability ([5]; first compound 1.265 µM) | relative viability ([5]; first compound 4 µM) | relative viability ([1]; first compound 0.4 µM) | relative viability ([2]; first compound 0.4 µM) | relative viability ([4]; first compound 0.4 µM) | relative viability ([5]; first compound 0.4 µM)
1 | HCC-366 | 0.869 | 0.366 | 0.379 | 0.453 | 0.317 | 0.383 | 0.138 | 0.137 | 0.0849 | 0.141 | 1.1 | 0.995 | 0.482 | 0.581 | 0.472 | 0.395 | – | – | – | –
2 | HCC-827 | 0.967 | 1.18 | 1.18 | 1.03 | 1.07 | 1.03 | 1.04 | – | 0.751 | 0.788 | 1.04 | 1.2 | 0.89 | 0.993 | 0.952 | 1.01 | – | – | – | –
3 | HOP-62 | 0.973 | 0.998 | 0.703 | 1.03 | 0.867 | 0.678 | 0.809 | – | 0.654 | 0.279 | 0.504 | 0.425 | 0.486 | 0.914 | 0.943 | 0.49 | – | – | – | –
4 | IA-LM | 0.657 | 0.717 | 0.236 | 0.717 | 0.942 | 0.84 | 0.346 | 0.267 | 0.233 | 0.149 | 0.879 | 1.01 | 0.586 | 0.792 | 0.916 | 0.659 | 0.559 | 0.901 | 0.632 | 0.725
5 | LC-2-ad | 0.731 | 0.836 | 0.918 | 0.78 | 0.783 | 0.827 | 0.448 | 0.443 | 0.525 | 0.332 | 1.13 | 1 | 0.605 | 0.421 | 0.37 | 0.417 | 0.881 | 0.87 | 0.858 | 0.423
6 | LCLC-97TM1 | 0.178 | 0.172 | 0.14 | 0.216 | 0.165 | 0.14 | 0.19 | – | 0.15 | 0.112 | 1.13 | 0.521 | 0.208 | 0.593 | 0.339 | 0.141 | – | – | – | –
7 | LCLC-103H | 1.09 | 1.04 | 0.796 | 0.995 | 0.971 | 0.939 | 0.578 | 0.702 | 0.565 | 0.446 | 1.15 | 0.817 | 0.739 | 1.03 | 1 | 0.713 | 1.19 | 1.01 | 0.956 | 1.06
8 | LK-2 | 0.557 | 0.365 | 0.451 | 1.28 | 0.914 | 0.943 | 0.618 | 0.52 | 0.514 | 0.499 | – | – | – | 0.198 | 0.245 | 0.187 | 0.474 | 0.921 | – | 0.333
9 | LOU-NH91 | 1.11 | 0.796 | 0.754 | 0.8 | 0.612 | 0.593 | 0.574 | 0.507 | 0.464 | 0.388 | 0.509 | 0.394 | 0.452 | 0.755 | 0.676 | 0.683 | 0.859 | 0.614 | 0.46 | 0.585
